Experimental data reported in patent publication US8881823B2, “Environmentally friendly low temperature breaker systems and related methods” (Halliburton Energy Services, Inc., priority 2011, dated 2014).

Key:
[1] = Active toxicity test of GLDA on Daphnia magna (OECD 202); type: in vivo; conditions: in vivo, OECD 202, 48-h
Description: (§1) GLDA was also tested for its eco-toxicological effect on various environmental subjects. In particular, the active toxicity of GLDA was measured on various organisms following OECD 201, 202 and 203 protocols.

[2] = test system: Daphnia magna; assay: as above; type: in vivo; conditions: OECD 202, 48-h
Description: as §1

[3] = Biodegradability, OECD 301 D Closed Bottle Test
Source text: The same protocol was used to test EDTA (“DISSOLVINE AM3-40” available from AkzoNobel Corporate) and sodium acetate.

[4] = Miscibility and pH of breaker systems in fresh water; type: physicochemical; conditions: breaker system in fresh water, 150° F. for 16 hours
Description: Several chelating agents and acids (breaker systems) were tested for their calcium carbonate dissolving capacity and miscibility in fresh water. Tests of the breaker systems were performed by adding a known volume of breaker system to a volume of brine needed to fill 100 ml in a jar. The jars were then sealed and swirled to mix the components. Samples containing 5%, 10%, or 20% v/v of chelating agents and acids were prepared. The jars were then placed in a static oven at 150° F. for 16 hours. Afterwards, miscibility of the components was observed and the pH of each mixture was tabulated.

[5] = Initial and over time miscibility and pH in potassium formate brines; type: physicochemical; conditions: for After Static Aging: overnight 150° F.; for pH Final: static 16 hrs @ 150° F.
Description: Completion breaker solutions were to be tested at 5%, 10%, and 20% by volume concentrations in each of the brines. The initial miscibility and the miscibility after static aging overnight at 150° F. were observed. Also, the pH of the final mixes was measured. The different concentrations of the breaker solutions were prepared with fresh water and filtered through a 1.6 μm glass fiber filter prior to testing.
The tests were run by adding the appropriate volume of the test breaker (5%, 10%, or 20% by volume) to the volume of the test brine needed to total 100 ml in a 4 ounce jar, sealing it, and swirling to mix the components. Observation was noted of the compatibility of the components.

[6] = Multiple step return permeability test; conditions: 20% GLDA solution in 11 lb/gal sodium bromide, 16 hours soak, approximately 110° F.
Source text: To simulate the performance of a breaker solution in potential downhole applications, a 20% GLDA solution in 11 lb/gal sodium bromide was used in a multiple step return permeability test on a low permeability Berea Sandstone core plug. The following procedure was used.
A 1.0″ diameter core plug was cut out of a Berea Sandstone block having low permeability (about 20% porosity). The core plug was inserted into a containment sleeve of a manual return permeameter (MRP). The pressure chamber was sealed and the temperature was maintained at approximately 110° F., while the confining pressure was at approximately 2,500 psi. Once the temperature and overburden pressure stabilized, isoparaffin solvent (“SOLTROL® 170” commercially available from Chevron Phillips Chemical Company) filtered to 0.45 micron, was produced through the core at 4 ml/min against approximately 200 psi back-pressure. […] The initial and final permeability values were calculated using Darcy's Law for linear flow: […]
Treatment simulation in the lab involved three separate steps, each step potentially causing formation damage or a reduction in permeability. […] Once the displacement of the drill-in fluid was complete, the damage caused by the previous three injection steps was evaluated by pumping of SOLTROL® 170 through the core until a constant permeability was obtained using the same procedure used for the initial permeability. […]

[7] = Compatibility and dissolution ability in potassium formate brine; type: physicochemical; conditions: for % Dissolved or precipitated out / Amount of carbonate remaining: 20% v/v breaker; for Amount of carbonate remaining: 2.5 g calcium carbonate, 16 hours, * = precipitation of formate salts
Description: In this Example, the compatibility and dissolution ability of various breaker systems with formate brine were evaluated. […] For each sample a 20% v/v breaker sample was prepared in three different concentrations of potassium formate brine (11 ppg, 12 ppg, and 13 ppg).
To determine the compatibility of each breaker with the potassium formate brine, each sample was checked for the formation of formate salts. This precipitation was indicative of an incompatibility of the breaker system with the formate brine. Samples in which precipitation was observed are noted with an asterisk (*).
The dissolution ability of the breaker systems was also tested in the various concentration of formate brine. […] The jars were then dried in an 90° F. oven for 16 hours. After the elapsed time, the amount of carbonate that remained was weighed and tabulated. The difference in weight represented the amount of carbonate that was dissolved by the breaker system and/or precipitated out as a result of being incompatible with the formate brine.

[8] = 5% by volume, potassium formate brine 11.0 lb/gal
[9] = 5% by volume, potassium formate brine 12.0 lb/gal
[10] = 5% by volume, potassium formate brine 13.0 lb/gal
[11] = 10% by volume, potassium formate brine 11.0 lb/gal
[12] = 10% by volume, potassium formate brine 12.0 lb/gal
[13] = 10% by volume, potassium formate brine 13.0 lb/gal
[14] = 20% by volume, potassium formate brine 11.0 lb/gal
[15] = 20% by volume, potassium formate brine 12.0 lb/gal
[16] = 20% by volume, potassium formate brine 13.0 lb/gal

O=C(O)CC[C@@H](C(=O)O)N(CC(=O)O)CC(=O)O [GLDA, L-glutamic acid N,N-diacetic acid]
EC50 at 48 h [1]: > 100 µg/mL
48-h NOEC [2]: NOEC ≧ 100 mg/l
Biodegradability [3]: Easy
biodegradability (in words) [3]: readily biodegradable
pH [4]: >12
Initial Observation [5, 8]: Clear, totally soluble
After Static Aging [5, 8]: Clear, totally soluble
pH Final [5, 8]: 12.7
Initial Observation [5, 9]: Clear, totally soluble
After Static Aging [5, 9]: Clear, totally soluble
pH Final [5, 9]: 13.3
Initial Observation [5, 10]: Clear, totally soluble
After Static Aging [5, 10]: Clear, totally soluble
pH Final [5, 10]: 13.8
Initial Observation [5, 11]: Clear, totally soluble
After Static Aging [5, 11]: Clear, totally soluble
pH Final [5, 11]: 13.3
Initial Observation [5, 12]: Clear, totally soluble
After Static Aging [5, 12]: Clear, totally soluble
pH Final [5, 12]: 14.4
Initial Observation [5, 13]: Clear, totally soluble
After Static Aging [5, 13]: Clear, totally soluble
pH Final [5, 13]: 15.0
Initial Observation [5, 14]: Clear, totally soluble
After Static Aging [5, 14]: Clear, totally soluble
pH Final [5, 14]: 13.7
Initial Observation [5, 15]: Clear, totally soluble
After Static Aging [5, 15]: Clear, totally soluble
pH Final [5, 15]: 14.7
Initial Observation [5, 16]: Clear, totally soluble
After Static Aging [5, 16]: Clear, totally soluble
pH Final [5, 16]: 15.4
solubility / miscibility in the potassium formate brines ([5]; tested concentrations, 11.0-13.0 lb/gal brines): soluble in the tested concentrations of the potassium formate brine
return permeability after the breaker cleanup, % of the initial permeability [6]: 94%
compatibility with the formate brine ([7]; 20% v/v breaker, 11, 12 and 13 ppg potassium formate, precipitation of formate salts = incompatible): fully compatible with the formate brine
% Dissolved or precipitated out ([7]; 11 ppg Potassium Formate): 48%
Amount of carbonate remaining ([7]; 11 ppg Potassium Formate): 1.05 g
% Dissolved or precipitated out ([7]; 12 ppg Potassium Formate): 33%
Amount of carbonate remaining ([7]; 12 ppg Potassium Formate): 1.67 g
% Dissolved or precipitated out ([7]; 13 ppg Potassium Formate): 20%
Amount of carbonate remaining ([7]; 13 ppg Potassium Formate): 2.00 g
